PubChem BioAssay (NCI)
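Interpolation was linear, between the two tested concentrations surrounding the appropriate level; five concentrations were tested over 48 hours in 96-well plates. The concentration for full growth arrest is given as TGI.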

Columns and labels:
Assay in all cases: NCI tumour cell line growth inhibition, 48 h
786-0 renal = system: 786-0 renal
A498 renal = system: A498 renal
A549 NSCLC = system: A549 NSCLC
ACHN renal = system: ACHN renal
CCRF-CEM leukemia = system: CCRF-CEM leukemia
COLO 205 colon = system: COLO 205 colon
DLD-1 colon = system: DLD-1 colon
DMS 114 small cell lung = system: DMS 114 small cell lung
DMS 273 small cell lung = system: DMS 273 small cell lung
EKVX NSCLC = system: EKVX NSCLC
HCC-2998 colon = system: HCC-2998 colon
HCT-116 colon = system: HCT-116 colon
HCT-15 colon = system: HCT-15 colon
HL-60(TB) leukemia = system: HL-60(TB) leukemia
HOP-18 NSCLC = system: HOP-18 NSCLC
HOP-62 NSCLC = system: HOP-62 NSCLC
HOP-92 NSCLC = system: HOP-92 NSCLC
HT29 colon = system: HT29 colon
IGROV1 ovarian = system: IGROV1 ovarian
K-562 leukemia = system: K-562 leukemia
KM12 colon = system: KM12 colon
KM20L2 colon = system: KM20L2 colon
LOX IMVI melanoma = system: LOX IMVI melanoma
LXFL 529 NSCLC = system: LXFL 529 NSCLC
M14 melanoma = system: M14 melanoma
M19-MEL melanoma = system: M19-MEL melanoma
MALME-3M melanoma = system: MALME-3M melanoma
MOLT-4 leukemia = system: MOLT-4 leukemia
NCI-H23 lung = system: NCI-H23 lung
NCI-H460 lung = system: NCI-H460 lung
OVCAR-3 ovarian = system: OVCAR-3 ovarian
OVCAR-4 ovarian = system: OVCAR-4 ovarian
OVCAR-5 ovarian = system: OVCAR-5 ovarian
OVCAR-8 ovarian = system: OVCAR-8 ovarian
RPMI-8226 leukemia = system: RPMI-8226 leukemia
RXF 393 renal = system: RXF 393 renal
RXF-631 renal = system: RXF-631 renal
SF-268 CNS = system: SF-268 CNS
SF-295 CNS = system: SF-295 CNS
SF-539 CNS = system: SF-539 CNS
SK-MEL-28 melanoma = system: SK-MEL-28 melanoma
SK-MEL-5 melanoma = system: SK-MEL-5 melanoma
SK-OV-3 ovarian = system: SK-OV-3 ovarian
SN12C renal = system: SN12C renal
SNB-19 CNS = system: SNB-19 CNS
SNB-75 CNS = system: SNB-75 CNS
SNB-78 CNS = system: SNB-78 CNS
SR leukemia = system: SR leukemia
SW-620 colon = system: SW-620 colon
TK-10 renal = system: TK-10 renal
U251 CNS = system: U251 CNS
UACC-257 melanoma = system: UACC-257 melanoma
UACC-62 melanoma = system: UACC-62 melanoma
UO-31 renal = system: UO-31 renal
XF 498 CNS = system: XF 498 CNS
CAKI-1 renal = system: CAKI-1 renal
NCI-H226 lung = system: NCI-H226 lung
NCI-H522 lung = system: NCI-H522 lung
SK-MEL-2 melanoma = system: SK-MEL-2 melanoma

Measured: TGI

O=C(O)C1CCCCN1C(=O)c1ccccc1 (stereo not given)
not listed: CAKI-1 renal | NCI-H226 lung | NCI-H522 lung | SK-MEL-2 melanoma
> 100 µM: all other assays above

COc1ccc(C2ON(c3ccccn3)CC=C2C)cc1 (stereo not given)
not listed: A498 renal | HCT-116 colon | HOP-92 NSCLC | TK-10 renal
> 100 µM: all other assays above
